Test results reported in patent US8716228B2, “GPR54 agonists or antagonists for treatment of diseases presenting behavioral abnormalities” (YEDA Research and Development Co. Ltd., priority 2009, dated 2014).

Tests used:
GPR54 = GPR54 (Mus musculus, UniProt Q91V45); details: in vivo; cited from earlier work
naive C57B1/6 mice = assay: PPI in naive C57B1/6 mice; type: in vivo, mouse
Method: Prepulse Inhibition (PPI). PPI testing was performed within startle chambers purchased from Med Associates Inc (Med Associates, St. Albans, Vt., USA). […] Briefly, during a period of acclimation, a 65-dB background noise was applied for 5-min, and continued throughout the test session. All sessions for testing of PPI consisted of startle trials (pulse alone, 40-ms, 120-dB), prepulse trials (prepulse 20-ms, 69, 73, 78, or 81 dB followed by a (100-ms delay) pulse), and no-stimulus trials. All sessions were presented in pseudo-random order. The average time between trials was 15 s (range 12-30 s). PPI was calculated as: % PPI=100−{[(startle response for prepulse+pulse)/(startle response for pulse-alone)]×100}. […] Data from no-stimulation trials are not included in the results because the values obtained were negligible relative to values from trials containing startle stimuli.
Neurotensin receptor antagonist SR142948 (TOCRIS COOKSON LTD) was used at 100 μg/kg 60 min before the PPI analysis.
GnRH receptor antagonist Cetrorelix Acetate (Cetrotide™, Anaspec Inc. Fremont, Calif.). Control mice were administered the same volume of PBS.
To examine whether Kp-10 can elevate PPI in naïve mice in a dose dependent manner, we analyzed PPI in C57B1/6 mice that were injected i.p with 100 μl of 1/10/100 μM Kp-10 (SEQ ID NO:3).

[1] = test system: offspring of poly I:C treated dams; assay: PPI in offspring of poly I:C treated dams (mouse model for schizophrenia); type: in vivo
Method: Poly I:C administration. Rats or mice were bred, and the first day after copulation was defined as day 1 of pregnancy. On gestation day 15, pregnant animals were injected intravenously with 4.0 mg/kg poly I:C (Sigma-Aldrich, Israel) dissolved in saline, or an equivalent volume of saline as a control. Both rats and mice received the same protocol of poly I:C administration.
(§1) Prepulse Inhibition (PPI). PPI testing was performed within startle chambers purchased from Med Associates Inc (Med Associates, St. Albans, Vt., USA). PPI was analyzed as described previously (Kipnis et al., 2004). Briefly, during a period of acclimation, a 65-dB background noise was applied for 5-min, and continued throughout the test session. All sessions for testing of PPI consisted of startle trials (pulse alone, 40-ms, 120-dB), prepulse trials (prepulse 20-ms, 69, 73, 78, or 81 dB followed by a (100-ms delay) pulse), and no-stimulus trials. All sessions were presented in pseudo-random order. The average time between trials was 15 s (range 12-30 s). PPI was calculated as: % PPI=100−{[(startle response for prepulse+pulse)/(startle response for pulse-alone)]×100}. In all the experiments, there were no significant differences between groups in trials of startle reactivity to pulse alone, and in no-stimulation trials. Data from no-stimulation trials are not included in the results because the values obtained were negligible relative to values from trials containing startle stimuli. Reduced PPI is associated with schizophrenia-related behavior. The same protocol was used in mice and rats (FIG. 1A).
Kisspeptin treatment. Mice were injected i.p with 100 μl of 1/10/100 μM Kp-10 peptide (SEQ ID NO:3) (synthesized at the Weizmann Institute of Science, or Sigma-Aldrich, Israel) dissolved in PBS, 30 minutes before the PPI analysis.
The ability of a normal lymphocyte population to reverse abnormal PPI behavior in immune deficient mice, encouraged us to test whether immune cells derived from the offspring of poly I:C treated dams would reverse the abnormal behavior of SCID mice in the PPI test. […]

BDNF = details: hippocampal slices; cited from earlier work
naive mice = assay: Tail suspension test; type: in vivo, mouse; details: 100 μl of 100 μM, vs PBS
Method: Tail suspension test. The tail suspension apparatus was made of horizontal metal rod supported by a stand. Each mouse was suspended from its tail using adhesive tape, suspending each mouse individually. The immobility time was measured during a 6 min observation period, latency to first immobility and total immobility was calculated (FIG. 10A).
The results we presented above using the PPI paradigm only relate to the psychotic symptoms of schizophrenia. However, schizophrenia patients suffer from cognitive and negative symptoms as well (i.e depression). […] To address whether Kp-10 has an antidepressant potency we studied its effect in the tail suspension test, an established method for screening antidepressant-like activity in mice (Steru et al., 1985; Cryan et al., 2005). Naïve mice were treated with Kp-10 (SEQ ID NO:3; 100 μl of 100 μM) or PBS and were subjected to the tail suspension test, in which the mouse is suspended by the tail from a lever, and the movements of the animal are recorded (FIG. 10A). The latency to the first immobility was longer and the duration of the total immobility was shorter in the Kp-10 treated mice compared to PBS treated mice (FIGS. 10B-10C).

SCID mice = assay: Prepulse inhibition (PPI) in SCID mice; type: in vivo, mouse; details: adult (12 week old) SCID mice, i.p. 100 μl of 100 μM, 30 minutes prior to PPI testing, vs PBS
Method: as §1, with “Data from no-stimulation trials are not included in the results because the values obtained were negligible relative to values from trials containing startle stimuli. Reduced PPI is associated with schizophrenia-related behavior. The same protocol was used in mice and rats (FIG. 1A).” left out
To confirm this possibility we examined whether injection of kisspeptin can restore the abnormal PPI in SCID mice to the normal level in wild-type mice. We analyzed the PPI in adult (12 week old) wild-type mice and, in SCID mice that were injected IP with 100 μl of 100 μM Kp-10 (SEQ ID NO:3), 30 minutes prior to PPI testing. […]

Sequence of GPR54 (Q91V45 whole entry): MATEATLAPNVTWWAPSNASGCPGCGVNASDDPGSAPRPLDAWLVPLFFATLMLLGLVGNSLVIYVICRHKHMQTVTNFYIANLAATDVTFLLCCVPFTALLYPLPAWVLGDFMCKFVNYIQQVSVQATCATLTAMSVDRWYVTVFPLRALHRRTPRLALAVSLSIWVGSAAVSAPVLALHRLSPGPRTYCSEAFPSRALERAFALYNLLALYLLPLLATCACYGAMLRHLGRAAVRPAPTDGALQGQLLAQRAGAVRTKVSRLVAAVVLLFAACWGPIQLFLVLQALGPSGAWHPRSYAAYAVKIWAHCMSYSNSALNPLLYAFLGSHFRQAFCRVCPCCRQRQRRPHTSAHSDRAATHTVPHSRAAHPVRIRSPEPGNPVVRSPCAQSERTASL

YNWNSFGLRF—NH2 [Kp-10]
GPR54 activation (GPR54): activate GPR54 in vivo
PPI (naive C57B1/6 mice; 100 μl of 1000 μM, small group, data not shown, vs PBS): no improvement was detected
PPI (naive C57B1/6 mice; female C57B1/6 mice, single dose 100 μl of 100 μM): significantly increased the PPI
PPI 24 hours after administration (ANOVA of percent PPI) (naive C57B1/6 mice; male mice, 100 μl of 100 μM): no significant main effect of the treatment
duration of the effect on PPI (naive C57B1/6 mice; male mice, 100 μl of 100 μM): less than 24 hours
PPI after repeated injection (naive C57B1/6 mice; male mice, repeated injection 24 hours after the first): induced the elevation of the PPI again
PPI after repeated injection (naive C57B1/6 mice; male mice, repeated injection 7 days after the first): induced the elevation of the PPI again
PPI at adulthood (naive C57B1/6 mice; naive animals, single injection at adolescence, vs PBS): no differences between the Kp-10 and the PBS treated mice
PPI (naive C57B1/6 mice; naive male mice, i.p. 100 μl of 1 μM, vs PBS): improved PPI but the improvement was not statistically significant
PPI (naive C57B1/6 mice; naive male mice, i.p. 100 μl of 10 μM, vs PBS): significantly increased PPI
PPI (naive C57B1/6 mice; naive male mice, i.p. 100 μl of 100 μM, vs PBS): significantly increased PPI
PPI at adulthood (12 weeks) ([1]; single i.p. injection at adolescence (8 weeks), 100 μl containing 100 μM, vs PBS): did not exhibit abnormal PPI
PPI ([1]; treatment at adulthood (12 weeks) after onset, 100 μl of 100 μM, 30 min before PPI): improved the abnormal PPI
BDNF mRNA levels (BDNF): elevate BDNF mRNA levels
duration of the total immobility (naive mice): shorter
latency to the first immobility (naive mice): longer
PPI (SCID mice): restored the PPI of SCID mice back to the normal level
